In brackets after ≈: the same amount, converted by molar mass. Read-outs that look alike come from different tables or passages of the source. Blank lines part the entries; values can stand above or below the compound they belong to.
Columns and labels:
AGE formation = experiment: In vitro assay for inhibition of AGE formation (BSA-fructose/glucose fluorescence); assay type: biochemical; conditions: for IC50: read-out: AGEs IC50
Method: The inhibition of AGE formation was evaluated using a modification of a previously published method. To prepare the reaction solution, 10 mg/mL of bovine serum albumin was added to 0.2 M fructose, 0.2 M glucose, and […] sodium azide. The reaction solution was mixed with various concentrations of the samples dissolved in 10% DMSO until the total volume was 1 mL. After an 8-day incubation at 37 °C, the fluorescence intensity of the reaction products was measured using a VERSA MAX GEMINI XPS fluorescence microplate reader (Molecular Devices) with excitation and emission wavelengths of 350 nm and 450 nm, respectively. After obtaining the results, we determined the IC50 values as the result on day 4. Aminoguanidine hydrochloride was used as the positive control.

PTP1B [1] = target: T1, PTP1B (Homo sapiens, UniProt P18031); experiment: In vitro assay for PTP1B inhibitory activity (pNPP); assay type: biochemical
T1 construct: purchased Enzo Life Sciences
T1 sequence (P18031 1-435): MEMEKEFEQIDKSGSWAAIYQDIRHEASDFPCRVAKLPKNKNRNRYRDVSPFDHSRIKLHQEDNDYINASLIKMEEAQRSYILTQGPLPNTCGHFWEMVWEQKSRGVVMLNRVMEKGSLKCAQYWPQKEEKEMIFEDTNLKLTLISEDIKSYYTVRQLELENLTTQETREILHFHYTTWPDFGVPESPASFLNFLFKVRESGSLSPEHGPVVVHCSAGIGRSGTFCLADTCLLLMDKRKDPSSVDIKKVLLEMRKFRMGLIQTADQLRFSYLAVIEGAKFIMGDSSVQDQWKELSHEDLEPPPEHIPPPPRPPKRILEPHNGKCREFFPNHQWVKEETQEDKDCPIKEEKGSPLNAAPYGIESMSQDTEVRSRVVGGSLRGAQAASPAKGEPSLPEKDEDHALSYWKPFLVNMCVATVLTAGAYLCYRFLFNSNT

α-glucosidase = target: T2, α-glucosidase (Saccharomyces cerevisiae, UniProt P53341); experiment: Kinetic study for α-glucosidase inhibition (Lineweaver–Burk and Dixon plots); assay type: biochemical; conditions: for α-Glucosidase Inhibition Mode: determined using Lineweaver–Burk plots
T2 construct: purchased Sigma-Aldrich Chemical Company
T2 sequence (P53341 whole entry): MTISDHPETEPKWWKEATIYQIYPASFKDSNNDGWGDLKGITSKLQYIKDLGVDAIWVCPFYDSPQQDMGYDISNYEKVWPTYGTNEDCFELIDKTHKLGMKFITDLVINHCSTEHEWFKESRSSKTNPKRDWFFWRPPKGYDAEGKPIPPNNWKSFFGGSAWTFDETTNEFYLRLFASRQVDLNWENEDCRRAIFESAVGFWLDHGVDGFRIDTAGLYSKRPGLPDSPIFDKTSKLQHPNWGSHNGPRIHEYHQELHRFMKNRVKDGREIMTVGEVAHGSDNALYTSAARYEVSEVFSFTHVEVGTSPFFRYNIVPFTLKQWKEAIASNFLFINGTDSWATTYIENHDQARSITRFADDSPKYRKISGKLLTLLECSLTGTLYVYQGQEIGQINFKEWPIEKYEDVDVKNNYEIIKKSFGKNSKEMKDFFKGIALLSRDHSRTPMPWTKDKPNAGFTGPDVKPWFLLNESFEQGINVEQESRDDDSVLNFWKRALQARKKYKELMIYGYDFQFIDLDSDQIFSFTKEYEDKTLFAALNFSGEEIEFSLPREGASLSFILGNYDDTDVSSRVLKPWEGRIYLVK

[2] = In vitro assay for peroxynitrite scavenging activity (DHR 123); conditions: mean ± SD of triplicate experiments; for IC50: read-out: ONOO− IC50
Method: The ONOO^− scavenging activity assay was conducted using a previously published method that involved measuring highly fluorescent rhodamine 123, which is rapidly converted from non-fluorescent DHR 123 in the presence of ONOO^−. Briefly, the rhodamine buffer (pH 7.4) was composed of 100 μM DTPA and 5 μM DHR 123. The assay buffer was prepared prior to use and placed on ice. The fluorescence intensity of the oxidized DHR 123 in the background and sample was measured 30 s after treatment with (and without) 200 μM authentic ONOO^−. The fluorescence intensity of the oxidized DHR 123 was measured using a VERSA MAX GEMINI XPS fluorescence microplate reader (Molecular Devices., CA, USA) at excitation and emission wavelengths of 485 and 530 nm, respectively. L-Penicillamine was used as the positive control.

PTP1B [3] = target: T1, PTP1B; conditions: at 20 μg/mL; ref 43 (Zhao et al.); cited from earlier work
PTP1B [4] = target: T1, PTP1B; experiment: Kinetic study for PTP1B inhibition (Lineweaver–Burk and Dixon plots); assay type: biochemical; conditions: for PTP1B Inhibition Mode: determined using Lineweaver–Burk plots
[5] = mean ± SD of triplicate experiments, result on day 4
[6] = mean ± SD of triplicate experiments, read-out: PTP1B IC50
[7] = determined using Dixon plots, read-out: α-Glucosidase Ki
[8] = determined using Dixon plots, read-out: PTP1B Ki

Structure (SMILES): Cl.N=C(N)NN [Aminoguanidine, Aminoguanidine hydrochloride, reference compound]
IC50 Values AGEs (AGE formation; [5]): 52.62 ± 6.70 µg/mL | IC50 (AGE formation; [5]): 890 ± 70.2 µM

Structure (SMILES): O=C1c2c(O)cc(O)cc2O[C@H](c2ccc(O)cc2O)[C@H]1O [Dihydromorin (3), Dihydromorin]
IC50 (PTP1B [1]; [6]): 180 µM | Ki (α-glucosidase; [7]): 10.2 µM | α-Glucosidase Inhibition Mode (α-glucosidase): Mixed | IC50 (AGE formation; [5]): 118 ± 7.89 µM | IC50 [2]: 2.26 ± 0.12 µM

Structure (SMILES): CC(C)=CCc1c(-c2ccc(O)cc2O)oc2c(CC=C(C)C)c(O)cc(O)c2c1=O [Kuwanon C (1), Kuwanon C]
IC50 (PTP1B [1]; [6]): 41.4 ± 1.64 µM | PTP1B inhibition (PTP1B [3]): 58% | Ki (α-glucosidase; [7]): 6.85 µM | α-Glucosidase Inhibition Mode (α-glucosidase): Mixed | inhibitory activity on AGE formation (AGE formation; at 100 μg/mL): no inhibitory activity on AGE formation | IC50 (AGE formation; [5]): > 100 µM | Ki (PTP1B [4]; [8]): 39.4 µM | PTP1B Inhibition Mode (PTP1B [4]): Non-competitive | IC50 [2]: 12.9 ± 0.68 µM

Structure (SMILES): CC(C)=CCc1c(-c2ccc(O)cc2O)oc2c(C3C=C(C)CC(c4ccc(O)cc4O)C3C(=O)c3ccc(O)cc3O)c(O)cc(O)c2c1=O (stereo not drawn) [Kuwanon G (7), Kuwanon G]
IC50 (PTP1B [1]; [6]): 16.2 ± 0.29 µM | Ki (α-glucosidase): 2.03 µM | α-Glucosidase Inhibition Mode (α-glucosidase): Mixed | IC50 (AGE formation; [5]): 69.1 ± 1.49 µM | Ki (PTP1B [4]; [8]): 12.4 µM | PTP1B Inhibition Mode (PTP1B [4]): Mixed | PTP1B Inhibition Mode (PTP1B [4]; listed as kuwanon G (7)): mixed-type | IC50 [2]: 6.35 ± 0.36 µM

IC50 Values ONOO− [2]: 1.37 ± 0.19 µg/mL (≈ 9.18 µM) | IC50 [2]: 6.69 ± 0.52 µM
Structure (SMILES): CC(C)(S)[C@H](N)C(=O)O [L-Penicillamine, reference compound]

Structure (SMILES): Oc1cc(O)cc(-c2cc3ccc(O)cc3o2)c1 [Moracin M (2), Moracin M]
IC50 (PTP1B [1]; [6]): 333 ± 20.5 µM | Ki (α-glucosidase; [7]): 3.32 µM | α-Glucosidase Inhibition Mode (α-glucosidase): Mixed | IC50 (AGE formation; [5]): 2.1 ± 0.22 µM | IC50 [2]: 1.08 ± 0.04 µM

Structure (SMILES): O=c1cc(-c2ccc(O)cc2O)oc2cc(O)cc(O)c12 [Norartocarpetin (6), Norartocarpetin]
PTP1B-inhibitory activity (PTP1B [1]; at 100 μg/mL): no PTP1B-inhibitory activity | IC50 (PTP1B [1]; mean ± SD of triplicate experiments, read-out: IC50 Values PTP1B): > 349 µM | IC50 (PTP1B [1]; [6]): > 100 µM | PTP1B inhibition (PTP1B [3]): 20% | Ki (α-glucosidase; [7]): 19.9 µM | α-Glucosidase Inhibition Mode (α-glucosidase): Mixed | IC50 (AGE formation; [5]): 77.3 ± 9.58 µM | IC50 [2]: 3.01 ± 0.15 µM

Structure (SMILES): Oc1cc(O)cc(/C=C/c2ccc(O)cc2O)c1 [Oxyresveratrol (5), Oxyresveratrol]
IC50 (PTP1B [1]; PTP1B IC50, mean ± SD of triplicate experiments): 2.85 ± 0.3 µM | Ki (α-glucosidase): 1.14 µM | α-Glucosidase Inhibition Mode (α-glucosidase): Mixed | IC50 (AGE formation; [5]): 7.56 ± 0.15 µM | Ki (PTP1B [4]): 2.16 µM | IC50 [2]: 2.37 ± 0.21 µM
